Test results reported in patent US12599134B2, “Herbicidal compositions comprising acetochlor” (BASF SE, priority 2024, dated 2026).

What was measured:
emerged weeds [1] = experiment: Post-emergence application in greenhouse trials (scale 0 to 100; expected value by Colby); type: in vivo
Procedure: (§1) In the examples below, using the method of S. R. Colby (1967) “Calculating synergistic and antagonistic responses of herbicide combinations”, Weeds 15, p. 22ff., the value E, which is expected if the activity of the individual active compounds is only additive, was calculated:
(§2) [formula] • where • X=percent activity using active herbicide A at an application rate a; • Y=percent activity using active herbicide B (e.g. acetochlor) at an application rate b; • E=expected activity (in %) by A+B at application rates a+b.
(§3) If the value found experimentally is higher than the value E calculated according to Colby, a synergistic effect is present.
The culture containers used were plastic pots containing loamy sand with approximately 3.0% of humus as substrate. The seeds of the test plants were sown separately for each species.
[…] To this end, the test plants were either sown directly, and grown in the same containers, or they were first grown separately as seedlings and transplanted into the test containers a few days prior to treatment.
Depending on the species, the plants were kept at 10-25° C. and 20-35° C., respectively. The test period extended over 2 to 4 weeks. During this time, the plants were tended and their response to the individual treatments was evaluated.
(§4) Evaluation was carried out using a scale from 0 to 100. 100 means no emergence of the plants, or complete destruction of at least the above-ground parts, and 0 means no damage or normal course of growth. A good herbicidal activity is given at values of at least 70, and very good herbicidal activity is given at values of at least 85.
Herbicide A-1 and acetochlor were, together with addition of 0.5% MSO (methylated sed oil) as adjuvant, formulated in water as distribution medium (water volume 200 l/ha) and sprayed with commercial flat fan nozzles.
Herbicide A-1, acetochlor and mesotrione were, together with addition of 0.5 v/v % MSO (methylated sed oil) as adjuvant, formulated in water as distribution medium (water volume 200 l/ha) and sprayed with commercial flat fan nozzles.
Herbicide A-1, acetochlor and topramezone were, together with addition of 0.5 v/v % MSO (methylated sed oil) as adjuvant, formulated in water as distribution medium (water volume 200 l/ha) and sprayed with commercial flat fan nozzles.

emerged weeds [2] = experiment: Post-emergence application in field trials (expected value by Colby); type: in vivo
Procedure: as §1, §2, §3, §4
Herbicide A-1 and acetochlor were, together with addition of 0.25% MSO (methylated sed oil) as adjuvant, formulated in water as distribution medium (water volume 200 l/ha) and sprayed with commercial flat fan nozzles.

[3] = ABUTH, growth stage 15, 7 DAT, g ai/ha: A-1 0.5, B 200, C-24 50
[4] = ABUTH, growth stage 15, 7 DAT, g ai/ha: A-1 0.5, B 200, C-25 3.125
[5] = ABUTH, growth stage 15, 21 DAT, g ai/ha: A-1 0.25, B 200, C-24 50
[6] = AVEFA, growth stage 11, 7 DAT, g ai/ha: A-1 2, B 200, C-25 3.125
[7] = AVEFA, growth stage 11, 21 DAT, g ai/ha: A-1 2, B 200, C-24 50
[8] = AVEFA, growth stage 11, 21 DAT, g ai/ha: A-1 2, B 200, C-25 3.125
[9] = AVEFA, growth stage 12, 7 DAT, g ai/ha: A-1 2, B 400
[10] = AVEFA, growth stage 12, 19 DAT, g ai/ha: A-1 2, B 400
[11] = BRADC, growth stage 11, 21 DAT, g ai/ha: A-1 2, B 200, C-25 3.125
[12] = COMBE, growth stage 13, 21 DAT, g ai/ha: A-1 1, B 200, C-24 50
[13] = COMBE, growth stage 13, 21 DAT, g ai/ha: A-1 1, B 200, C-25 3.125
[14] = ECHCG, growth stage 12, 21 DAT, g ai/ha: A-1 2, B 200, C-24 50
[15] = ECHCG, growth stage 12, 21 DAT, g ai/ha: A-1 2, B 200, C-25 3.125
[16] = ECHCG, growth stage 13, 7 DAT, g ai/ha: A-1 0.5, B 400
[17] = ECHCG, growth stage 13, 19 DAT, g ai/ha: A-1 0.5, B 400
[18] = ELEIN, growth stage 14, 7 DAT, g ai/ha: A-1 2, B 400
[19] = ERICA, growth stage 19, 7 DAT, g ai/ha: A-1 2, B 200, C-25 3.125
[20] = GLXMA, growth stage 18, 7 DAT, g ai/ha: A-1 1, B 200, C-25 3.125
[21] = KCHSC, growth stage 29, 21 DAT, g ai/ha: A-1 1, B 200, C-25 3.125
[22] = KCHSC, growth stage 29, 21 DAT, g ai/ha: A-1 2, B 200, C-25 3.125
[23] = LOLMU, growth stage 11, 7 DAT, g ai/ha: A-1 2, B 200, C-25 3.125
[24] = LOLMU, growth stage 11, 21 DAT, g ai/ha: A-1 2, B 200, C-25 3.125
[25] = ZEAMX, growth stage 12, 21 DAT, g ai/ha: A-1 2, B 200, C-24 50
[26] = ZEAMX, growth stage 12, 21 DAT, g ai/ha: A-1 2, B 200, C-25 3.125
[27] = AMARE, growth stage 31-49, height 10-12 cm, 7 DAT, g ai/ha: A-1 12.5, B 1050
[28] = AMARE, growth stage 31-49, height 10-12 cm, 21 DAT, g ai/ha: A-1 12.5, B 1050
[29] = DIGSA, growth stage 22, height 10-15 cm, 7 DAT, g ai/ha: A-1 12.5, B 1050
[30] = DIGSA, growth stage 22, height 10-15 cm, 21 DAT, g ai/ha: A-1 12.5, B 1050
[31] = DIGSA, growth stage 22, height 10-15 cm, 42 DAT, g ai/ha: A-1 12.5, B 1050
[32] = ECHCG, growth stage 22-23, height 19-30 cm, 7 DAT, g ai/ha: A-1 12.5, B 1050
[33] = ECHCG, growth stage 22-23, height 19-30 cm, 7 DAT, g ai/ha: A-1 18, B 1050
[34] = ECHCG, growth stage 22-23, height 19-30 cm, 21 DAT, g ai/ha: A-1 12.5, B 1050
[35] = ECHCG, growth stage 22-23, height 19-30 cm, 21 DAT, g ai/ha: A-1 18, B 1050
[36] = ECHCG, growth stage 22-23, height 19-30 cm, 42 DAT, g ai/ha: A-1 12.5, B 1050
[37] = ECHCG, growth stage 22-23, height 19-30 cm, 42 DAT, g ai/ha: A-1 18, B 1050
[38] = GLXMA, growth stage 12-13, height 7-11 cm, 42 DAT, g ai/ha: A-1 18, B 1050
[39] = HORVW, growth stage 23-29, height 20-25 cm, 21 DAT, g ai/ha: A-1 12.5, B 1050
[40] = HORVW, growth stage 23-29, height 20-25 cm, 21 DAT, g ai/ha: A-1 18, B 1050
[41] = HORVW, growth stage 23-29, height 20-25 cm, 28 DAT, g ai/ha: A-1 12.5, B 1050
[42] = HORVW, growth stage 23-29, height 20-25 cm, 28 DAT, g ai/ha: A-1 18, B 1050
[43] = ZEAMX, growth stage 15-16, height 50-60 cm, 7 DAT, g ai/ha: A-1 12.5, B 1050
[44] = ZEAMX, growth stage 15-16, height 50-60 cm, 21 DAT, g ai/ha: A-1 12.5, B 1050
[45] = ZEAMX, growth stage 15-16, height 50-60 cm, 28 DAT, g ai/ha: A-1 12.5, B 1050
[46] = ZEAMX, growth stage 15-16, height 50-60 cm, 28 DAT, g ai/ha: A-1 18, B 1050

Measured: % Herbicidal activity

CCOC(=O)COc1ccccc1Oc1nc(-n2c(=O)cc(C(F)(F)F)n(C)c2=O)c(F)cc1Cl [A-1, ethyl 2-[2-[[3-chloro-5-fluoro-6-[3-methyl-2,6-dioxo-4-(trifluoromethyl)pyrimidin-1-yl]-2-pyridyl]oxy]phenoxy]acetate]
95%: emerged weeds [2]; [27] | emerged weeds [2]; [41] | emerged weeds [2]; [42]
15%: emerged weeds [1]; [17]
90%: emerged weeds [1]; [20]
45%: emerged weeds [2]; [36]
60%: emerged weeds [1]; [5] | emerged weeds [1]; [21]
55%: emerged weeds [1]; [6] | emerged weeds [2]; [32] | emerged weeds [2]; [33] | emerged weeds [2]; [35]
75%: emerged weeds [1]; [9] | emerged weeds [1]; [10] | emerged weeds [1]; [18] | emerged weeds [1]; [22] | emerged weeds [2]; [29]
50%: emerged weeds [2]; [34] | emerged weeds [2]; [37]
30%: emerged weeds [1]; [7] | emerged weeds [1]; [8] | emerged weeds [1]; [11] | emerged weeds [1]; [14] | emerged weeds [1]; [15]
85%: emerged weeds [1]; [3] | emerged weeds [1]; [4] | emerged weeds [2]; [38]
80%: emerged weeds [1]; [12] | emerged weeds [1]; [13] | emerged weeds [1]; [19] | emerged weeds [2]; [28] | emerged weeds [2]; [40] | emerged weeds [2]; [43]
40%: emerged weeds [1]; [16] | emerged weeds [1]; [25] | emerged weeds [1]; [26] | emerged weeds [2]; [45]
10%: emerged weeds [1]; [23] | emerged weeds [1]; [24]
70%: emerged weeds [2]; [30] | emerged weeds [2]; [31] | emerged weeds [2]; [39] | emerged weeds [2]; [44] | emerged weeds [2]; [46]

CCOCN(C(=O)CCl)c1c(C)cccc1CC [B, acetochlor]
25%: emerged weeds [2]; [28]
5%: emerged weeds [1]; [11] | emerged weeds [1]; [12] | emerged weeds [1]; [13] | emerged weeds [1]; [14] | emerged weeds [1]; [15] | emerged weeds [1]; [25] | emerged weeds [1]; [26]
10%: emerged weeds [1]; [16] | emerged weeds [2]; [29] | emerged weeds [2]; [30] | emerged weeds [2]; [31] | emerged weeds [2]; [39] | emerged weeds [2]; [40] | emerged weeds [2]; [41] | emerged weeds [2]; [42]
15%: emerged weeds [1]; [19]
40%: emerged weeds [2]; [27]
60%: emerged weeds [1]; [17]
0%: emerged weeds [1]; [3] | emerged weeds [1]; [4] | emerged weeds [1]; [5] | emerged weeds [1]; [6] | emerged weeds [1]; [7] | emerged weeds [1]; [8] | emerged weeds [1]; [9] | emerged weeds [1]; [10] | emerged weeds [1]; [18] | emerged weeds [1]; [20] | emerged weeds [1]; [21] | emerged weeds [1]; [22] | emerged weeds [1]; [23] | emerged weeds [1]; [24] | emerged weeds [2]; [32] | emerged weeds [2]; [33] | emerged weeds [2]; [34] | emerged weeds [2]; [35] | emerged weeds [2]; [36] | emerged weeds [2]; [37] | emerged weeds [2]; [44] | emerged weeds [2]; [45] | emerged weeds [2]; [46]
20%: emerged weeds [2]; [38]
8%: emerged weeds [2]; [43]

CS(=O)(=O)c1ccc(C(=O)C2C(=O)CCCC2=O)c([N+](=O)[O-])c1 [C-24, mesotrione]
0%: emerged weeds [1]; [25]
10%: emerged weeds [1]; [7]
95%: emerged weeds [1]; [14]
60%: emerged weeds [1]; [3]
90%: emerged weeds [1]; [5] | emerged weeds [1]; [12]

Cc1c(C(=O)c2cnn(C)c2O)ccc(S(C)(=O)=O)c1C1=NOCC1 [C-25, topramezone]
35%: emerged weeds [1]; [13] | emerged weeds [1]; [19]
50%: emerged weeds [1]; [4]
0%: emerged weeds [1]; [23] | emerged weeds [1]; [24] | emerged weeds [1]; [26]
10%: emerged weeds [1]; [6] | emerged weeds [1]; [8] | emerged weeds [1]; [21] | emerged weeds [1]; [22]
20%: emerged weeds [1]; [20]
80%: emerged weeds [1]; [15]
55%: emerged weeds [1]; [11]
